Test results as given in US20180014546A1, “Broad Spectrum Bacteriocin for Control of Unwanted Bacteria” (priority 2013, published 2018).
“Also recorded” adds a separate entry of the source.

How the values were obtained:
[1] = system: Lactobacillus fermentum strain 0315-25; assay: Batch culture growth inhibition, bacteriocin and/or phage, growth monitored 24 h; format: cell-based
Procedure: Bacteriocin alone, bacteriophage alone, and bacteriocin combined with phage were tested against Lactobacillus in batch culture systems. To be specific, logarithmic growth phase cultures of Lactobacillus fermentum strain 0315-25 (OD600 being 0.1) were treated either with single agent at different doses, such as bacteriocin GP15cin alone at different doses (0.1%, 1%, and 10%, v/v), or a phage designated herein as LferInf alone at different MOIs (0.1, 1, and 10), or two agents combined together at different doses, such as 0.1% GP15cin plus LferInf at MOI of 0.1, 0.1% GP15cin plus phage LferInf at MOI of 1, 1% GP15cin plus LferInf at MOI of 0.1, and 1% GP15cin plus phage LferInf at MOI of 1. Culture without any treatment was served as control. LferInf is a bacteriophage isolated from wastewater and found to be effective against a broad host range of Lactobacillus and described in more detail below. The growth of bacteria was monitored for 24 h, and the treatment effects were compared.

[2] = system: LAB isolates from commercial ethanol plants (Lactobacillus, Lactococcus, Weissella, Leuconostoc, Pediococcus, Enterococcus, Streptococcus); assay: Inhibitory activity spectrum, culture supernatant spotted on indicator bacterial lawns (LAB isolates); format: cell-based, lactic acid bacteria; conditions: multiple genera
Procedure: (§1) In the discovery of the unique broad spectrum bacteriocin of this invention, indigenous LAB were isolated and purified from the fermentation mash of the commercial ethanol fermentation plants. The identities of the isolates were determined to the species level based on their 16s rDNA sequences. The capability of the isolated LAB strains to produce antimicrobial compounds was identified. Culture supernatants of the strains to be tested were spotted onto individual indicator bacterial culture lawns, which were prepared using a variety of LAB strains of different genera. After incubation, growth inhibition of the indicator bacteria was seen as a clear zone at and around the spotting position. Any positive activity of bacterial growth inhibition from the tested culture supernatant was confirmed again in the same manner, and the inhibitory activity spectrum of the antimicrobial compound is determined. […]
(§2) The inhibitory activity spectrum of GP15cin against different strains was determined. The active concentration range and the minimum inhibition concentration of the bacteriocin are determined using different indicator strains. The activity levels of the bacteriocin present in the raw bacterial culture supernatants and/or in partially purified mixtures were also determined. […]

[3] = system: contaminating LAB; assay: Lactic and acetic acid levels in laboratory-scale ethanol fermentation; format: cell-based
Description: (§3) GP15cin described herein were produced by a L. plantarum strain, which was isolated from the indigenous LAB populations present during commercial ethanol fermentation. GP15cin can act towards species and/or strains of similar indigenous LAB populations and thus can be used as an effective control for contaminating LAB. […] Either fermentor or mash cooler mash samples were collected from 6 different commercial ethanol plants on 13 different days from 2012 to 2014. Results of 15 independent tests are shown. […] It is likely that the effects on controlling contaminating bacteria and acids will be even more significant if a higher dose of […] is used. The presented results highlight the feasibility of GP15cin application for control of unwanted bacteria in ethanol and other biofuel industries.

[4] = Bacteriocin stability at different temperatures and pH values; format: physicochemical
Procedure: Either using crude, partially or completely purified form, the chemical characteristics of the bacteriocins can be determined. The determined characteristics include their sensitivities to different enzymes, stability at different temperatures and pH values, etc. Sensitivity of the bacteriocin to proteolytic and lipolytic enzymes, such as trypsin, pepsin, pronase, lipase, etc, was tested. The proteinaceus nature of GP15cin was confirmed. […] The same bacteriocin has optimal activity in the pH range of 4-10.

[5] = system: production host Lactobacillus plantarum GP15; assay: Activity against own production host; format: cell-based
Description: As noted above, GP-15cin may be applied alone or in combination with other bacteriocin and/or bacteriophage virulent for unwanted bacteria in the same system. Bacteriocin producing hosts are immune to the bacteriocins produced by themselves. GP-15cin is therefore not active against its own production host, GP15cin. […] Therefore, it is desirable to combine GP-15cin with a different bacteriocin in a cocktail that will kill the bacteria insensitive to GP15cin. Additionally, GP-15cin may be combined with other antimicrobial agents to broaden the scope of effectiveness against the range of unwanted bacteria that are targeted. For example, the combination of bacteriocin and bacteriophage (phage) ensures a broader inhibition spectrum and more efficient control of the bacteria contamination. Phage targeting these non-sensitive strains can be isolated, and be combined with the bacteriocin for a complete control of contaminating bacteria.

[6] = system: indigenous contaminating bacteria in ethanol fermentation mash; assay: Reduction of indigenous contaminating bacterial level in fermentation mash from commercial ethanol plants; format: cell-based; conditions: crude form
Procedure: The inhibitory activity spectrum of GP15cin against different strains was determined. The active concentration range and the minimum inhibition concentration of the bacteriocin are determined using different indicator strains. The activity levels of the bacteriocin present in the raw bacterial culture supernatants and/or in partially purified mixtures were also determined. […] FIG. 2 to FIG. 11 show the effectiveness of GP15cin in reducing the total levels of indigenous bacteria presented in fermentation mash from different commercial ethanol plants. The exact identities of the indigenous bacteria population in different plants are unknown and are likely highly diverse.
as §3, with “The presented results highlight the feasibility of GP15cin application for control of unwanted bacteria in ethanol and other biofuel industries.” left out

[7] = system: non-LAB isolates (strains of Staphylococcus, Enterobacter, Bacillus, Clostridium); assay: Inhibitory activity spectrum, culture supernatant spotted on indicator bacterial lawns (non-LAB isolates); format: cell-based
Procedure: as §1, §2

**Q.** For plantaricin W [GP15cin], which “growth of L. fermentum” value ([1]; GP15cin alone 0.1% v/v) is on record?
**A.** The value was “all treatment, except GP15cin used at 0.1%, suppressed the growth”.

**Q.** And the “growth of L. fermentum” value ([1]; GP15cin alone 1% v/v)?
**A.** Its value is “suppressed the growth”.

**Q.** And the “growth of L. fermentum” value ([1]; GP15cin alone 10% v/v)?
**A.** The value was “suppressed the growth”.

**Q.** And the “killing activity against LAB isolates” value [2]?
**A.** Its value is “broad range killing activity; also recorded: extremely broad killing spectrum”.

**Q.** And the “lactic acid and acetic acid levels produced by contaminating LAB” value [3]?
**A.** The value was “significantly reduced”.

**Q.** What about the “pH range of optimal activity” value [4] of the same substance?
**A.** The value was 4-10 pH.

**Q.** And the “loss of activity (heat resistance)” value ([4]; after 2 hours at 120° C.)?
**A.** Its value is “not a complete loss of activity”.

**Q.** What about the loss of activity ([4]; pH 12) of the same substance?
**A.** Its loss of activity is “complete loss of activity”.

**Q.** What about the reduction in activity ([4]; pH values of 1, 2, 3, and 11) of the same substance?
**A.** Its reduction in activity is 50%.

**Q.** And the reduction in activity ([4]; temperature of 120° C.)?
**A.** Its reduction in activity is 87.5%.

**Q.** And the reduction in activity ([4]; temperatures of 65-100° C.)?
**A.** Its reduction in activity is 50%.

**Q.** And the “activity against own production host” value [5]?
**A.** Its value is “not active”.

**Q.** What about the “time in which the reduction effect was seen” value [6] of the same substance?
**A.** Its value is at least 2 h.

**Q.** What about the “reduction of indigenous contaminating bacteria levels” value ([6]; mash samples from 6 plants, 15 independent tests) of the same substance?
**A.** Its value is “consistent reduction effects seen in all tests; also recorded: reduced indigenous contaminating bacteria levels in all mash samples”.

**Q.** And the “killing activity against non-LAB isolates” value [7]?
**A.** The value was “showed killing activity”.
